≈ marks a conversion by molar mass, not a printed value.
Assays:
Escherichia coli [1] = assay: Antibacterial activity against Escherichia coli BL21(DE3) measured after 20 hrs by microdilution method; type: functional
Klebsiella oxytoca = assay: Antibacterial activity against Klebsiella oxytoca assessed as diameter of inhibition zone measured after 24 hrs by agar disc diffusion method; type: functional
Escherichia coli [2] = assay: Antibacterial activity against Escherichia coli BL21(DE3) assessed as diameter of inhibition zone measured after overnight incubation by agar disc diffusion method; type: functional
Klebsiella aerogenes = assay: Antibacterial activity against Enterobacter aerogenes assessed as diameter of inhibition zone measured after 24 hrs by agar disc diffusion method; type: functional
Escherichia coli [3] = assay: Antibacterial activity against Escherichia coli D22 measured after 20 hrs by microdilution method; type: functional; conditions: D22, 20 h
Citrobacter freundii = assay: Antibacterial activity against Citrobacter freundii assessed as diameter of inhibition zone measured after 24 hrs by agar disc diffusion method; type: functional
[4] = Inhibition of Escherichia coli LpxC C63A mutant using UDP-3-O-[(R)-3-hydroxymyristoyl]-N-acetylglucosamine as substrate measured after 30 mins by fluorescence based microplate assay
Enterobacter cloacae = assay: Antibacterial activity against Enterobacter cloacae assessed as diameter of inhibition zone measured after 24 hrs by agar disc diffusion method; type: functional
Pseudomonas aeruginosa = assay: Antibacterial activity against Pseudomonas aeruginosa assessed as diameter of inhibition zone measured after 24 hrs by agar disc diffusion method; type: functional
Escherichia coli [5] = assay: Antibacterial activity against Escherichia coli D22 assessed as diameter of inhibition zone measured after overnight incubation by agar disc diffusion method; type: functional
Klebsiella pneumoniae = assay: Antibacterial activity against Klebsiella pneumoniae assessed as diameter of inhibition zone measured after 24 hrs by agar disc diffusion method; type: functional
Proteus vulgaris = assay: Antibacterial activity against Proteus vulgaris assessed as diameter of inhibition zone measured after 24 hrs by agar disc diffusion method; type: functional
Proteus mirabilis = assay: Antibacterial activity against Proteus mirabilis assessed as diameter of inhibition zone measured after 24 hrs by agar disc diffusion method; type: functional

| MIC (Escherichia coli [1]) [µM] | MIC (Escherichia coli [3]) [µM] | IC50 [4] [µM] | SMILES | diameter of the inhibition zone (DIZ) (Klebsiella oxytoca) [mm] | diameter of the inhibition zone (DIZ) (Escherichia coli [2]) [mm] | diameter of the inhibition zone (DIZ) (Klebsiella aerogenes) [mm] | diameter of the inhibition zone (DIZ) (Citrobacter freundii) [mm] | Ki [4] [µM] | diameter of the inhibition zone (DIZ) (Enterobacter cloacae) [mm] | diameter of the inhibition zone (DIZ) (Pseudomonas aeruginosa) [mm] | diameter of the inhibition zone (DIZ) (Escherichia coli [5]) [mm] | diameter of the inhibition zone (DIZ) (Klebsiella pneumoniae) [mm] | diameter of the inhibition zone (DIZ) (Proteus vulgaris) [mm] | diameter of the inhibition zone (DIZ) (Proteus mirabilis) [mm] |
| --- | --- | --- | --- | --- | --- | --- | --- | --- | --- | --- | --- | --- | --- | --- |
| > 256 | 64 (≈ 27.7 µg/mL) | > 200 | O=C(NO)[C@@H]1C[C@H](O)CN1C(=O)c1ccc(C#Cc2ccc(CN3CCCC3)cc2)cc1 | <6 | <6 | <6 | <6 | > 27.6 | <6 | <6 | 14.3 | <6 | <6 | <6 |
| > 256 | 32 (≈ 14.3 µg/mL) | 54.5 | O=C(NO)[C@@H]1C[C@H](O)CN1C(=O)c1ccc(C#Cc2ccc(CN3CCCCC3)cc2)cc1 | 9 | <6 | 10 | 9 | 7.5 | <6 | <6 | 19.2 | 9 | 13 | 11 |
| > 256 | 128 (≈ 43.3 µg/mL) | > 200 | O=C(NO)[C@@H]1C[C@H](F)CN1Cc1ccc(C#Cc2ccccc2)cc1 |  | <6 |  |  | > 27.6 |  |  | 10.7 |  |  |  |
| 64 (≈ 27.9 µg/mL) | 1 (≈ 0.436 µg/mL) | 8.1 | O=C(NO)[C@@H]1CCCN1Cc1ccc(C#Cc2ccc(CN3CCSCC3)cc2)cc1 | 11 | 10.7 | 13 | 13 | 1.1 | 14 | <6 | 17.7 | 14 | <6 | 8 |
| > 256 | 128 (≈ 42.8 µg/mL) | > 200 | O=C(NO)[C@@H]1CCCN1C(=O)c1ccc(C#Cc2ccccc2)cc1 | 8 | <6 | <6 | 8 | > 27.6 | 8 | <6 | 12 | <6 | 7 | <6 |
| > 256 | 128 (≈ 48.7 µg/mL) |  | COc1ccc(C#Cc2ccc(C(=O)N3C[C@@H](O)C[C@H]3C(=O)NO)cc2)cc1 | 7 | <6 | <6 | 8 |  | 8 | <6 | <6 | <6 | 9 | <6 |
| 256 (≈ 115 µg/mL) | 64 (≈ 28.7 µg/mL) |  | N[C@H]1C[C@@H](C(=O)NO)N(C(=O)c2ccc(C#Cc3ccc(CN4CCOCC4)cc3)cc2)C1 | 13 | 7.8 | 11 | 8 |  | <6 | 10 | 20 | 9 | <6 | 7 |
| > 256 | 128 (≈ 44.7 µg/mL) |  | Nc1ccc(C#Cc2ccc(C(=O)N3CCC[C@H]3C(=O)NO)cc2)cc1 | 7 | 7.5 | <6 | 7 |  | <6 | <6 | 14.3 | <6 | <6 | <6 |
| > 256 | 128 (≈ 45.1 µg/mL) | 65.9 | O=C(NO)[C@@H]1C[C@H](F)CN1C(=O)c1ccc(C#Cc2ccccc2)cc1 |  | <6 |  |  | 9.1 |  |  | 13.3 |  |  |  |
| 256 (≈ 101 µg/mL) | 32 (≈ 12.6 µg/mL) |  | CN(C)c1ccc(C#Cc2ccc(C(=O)N3C[C@H](O)C[C@H]3C(=O)NO)cc2)cc1 | 8 | <6 | 10 | 8 |  | <6 | <6 | 14 | 7 | <6 | 8 |
| > 256 | 128 (≈ 46.8 µg/mL) |  | Nc1ccc(C#Cc2ccc(C(=O)N3C[C@H](O)C[C@H]3C(=O)NO)cc2)cc1 | 7 | <6 | <6 | <6 |  | <6 | <6 | 12.3 | <6 | <6 | 7 |
| > 256 | 256 (≈ 94.3 µg/mL) | > 200 | O=C(NO)[C@@H]1C[C@@H](O)CN1C(=O)c1ccc(C#Cc2ccc(F)cc2)cc1 |  | <6 |  |  | > 27.6 |  |  | 10.7 |  |  |  |
| > 256 | 128 (≈ 46.8 µg/mL) |  | Nc1ccc(C#Cc2ccc(C(=O)N3C[C@@H](O)C[C@H]3C(=O)NO)cc2)cc1 | 8 | <6 | <6 | <6 |  | <6 | <6 | 13 | <6 | <6 | 8 |
| > 256 | 64 (≈ 24.3 µg/mL) |  | COc1ccc(C#Cc2ccc(C(=O)N3C[C@H](O)C[C@H]3C(=O)NO)cc2)cc1 | 7 | <6 | <6 | 7 |  | <6 | <6 | 9.7 | <6 | 8 | 7 |
| > 256 | 128 (≈ 44.7 µg/mL) |  | N[C@H]1C[C@@H](C(=O)NO)N(C(=O)c2ccc(C#Cc3ccccc3)cc2)C1 | 7 | 7.5 | 7 | 7 |  | 7 | 7 | 12.3 | 7 | <6 | 8 |
| > 256 | 128 (≈ 44.8 µg/mL) | 103 | O=C(NO)[C@@H]1C[C@@H](O)CN1C(=O)c1ccc(C#Cc2ccccc2)cc1 |  | <6 |  |  | 14.2 |  |  | 14 |  |  |  |

| SMILES | MIC (Escherichia coli [1]) [µM] | MIC (Escherichia coli [3]) [µM] | IC50 [4] [µM] | diameter of the inhibition zone (DIZ) (Klebsiella oxytoca) [mm] | diameter of the inhibition zone (DIZ) (Escherichia coli [2]) [mm] | diameter of the inhibition zone (DIZ) (Klebsiella aerogenes) [mm] | diameter of the inhibition zone (DIZ) (Citrobacter freundii) [mm] | Ki [4] [µM] | diameter of the inhibition zone (DIZ) (Enterobacter cloacae) [mm] | diameter of the inhibition zone (DIZ) (Pseudomonas aeruginosa) [mm] | diameter of the inhibition zone (DIZ) (Escherichia coli [5]) [mm] | diameter of the inhibition zone (DIZ) (Klebsiella pneumoniae) [mm] | diameter of the inhibition zone (DIZ) (Proteus vulgaris) [mm] | diameter of the inhibition zone (DIZ) (Proteus mirabilis) [mm] |
| --- | --- | --- | --- | --- | --- | --- | --- | --- | --- | --- | --- | --- | --- | --- |
| O=C(NO)[C@H]1O[C@@H](c2ccc(C#Cc3ccc(CN4CCOCC4)cc3)cc2)[C@@H](O)[C@H]1O | > 256 | 16 (≈ 7.02 µg/mL) | > 200 |  | <6 |  |  | > 27.6 |  |  | 13.2 |  |  |  |
| O=C(NO)[C@@H]1O[C@@H](c2ccc(C#Cc3ccc(CN4CCOCC4)cc3)cc2)[C@@H](O)[C@H]1O | > 256 | 8 (≈ 3.51 µg/mL) | 10 |  | <6 |  |  | 1.4 |  |  | 22.1 |  |  |  |
| O=C(NO)[C@@H]1C[C@H](O)[C@H](c2ccc(C#Cc3ccc(CN4CCOCC4)cc3)cc2)O1 | > 256 | 16 (≈ 6.76 µg/mL) | 87 |  | <6 |  |  | 12 |  |  | 15.3 |  |  |  |
| CC1(C)O[C@@H]2[C@H](O1)[C@H](c1ccc(C#Cc3ccc(CN4CCOCC4)cc3)cc1)O[C@@H]2C(=O)NO | > 256 | 128 (≈ 61.3 µg/mL) | > 200 |  | <6 |  |  | > 27.6 |  |  | 14.7 |  |  |  |

From ChEMBL document CHEMBL4392848, “Proline-based hydroxamates targeting the zinc-dependent deacetylase LpxC: Synthesis, antibacterial properties, and docking studies” (Bioorg Med Chem, 2019)
